Results: patent publication US20070275936A1, “Formulations and Treatment Methods” (priority 1998, published 2007)

Tests used:
[1] = test system: NK cell; experiment: NK cell counts in HIV/HCV infected patient dosed I.V. with BrEA; assay type: in vivo, human; settings: predosing 28
Method: A patient infected with HIV and HCV was dosed I.V. with BrEA for 3 consecutive days using a formulation that contained 20 mg/mL BrEA in 45% w/v hydroxypropyl-β-cyclodextrin and saline. Four mL of the formulation (80 mg BrEA) was administered to the patient every 4 hours during the 3 day treatment period. The patient's predosing HCV level was 6.5 Log10 as measured by PCR and the HCV level was 6.2 Log10 on the first day of dosing, 5.5 Log10 on the 3rd day of dosing and 4.9 Log10 three days after the last dose was administered. HIV RNA levels as measured by PCR was 5.2 Log10 (predosing), 5.8 Log10 (first day), 5.9 Log10 (third day) and 5.4 Log10 (day 6). The NK cell counts (cells/mm^3) were 28, 41 and 38 at predosing, day 0 and day 3.

[2] = Oral bioavailability of BrEA formulations in rats; assay type: in vivo
Method: In vivo experiments were conducted to determine the bioavailability of BrEA via oral administration using different formulations. BrEA was (1) solubilized in soya oil, vitamin E oil, a mixture of vitamin E and cremophore or (2) BrEA was micronized and combined with or without a surfactant. These formulations are described below. The formulations were administered orally to rats and BrEA levels were determined in the blood, liver, spleen, kidney, and the lymph nodes. In the studies using micronized BrEA, the brain was evaluated for drug uptake. Twenty-four hour urine and feces were collected when BrEA was solubilized in vitamin E and soya oils and vitamin E mixed with Cremophore. The data from these studies indicate that BrEA enters into the lymphatics but is eliminated rapidly from the other tissues. The amount of ^14C radioactivity recovered in the feces 24 hours after administration was 78 to 83%.
BrEA (5 mg in 1.0 mL of soya oil or vitamin E oil) supplemented with ^14C-labelled BrEA was administered intragastrically to rats. Solubilization of BrEA in the vitamin E or soya oil was facilitated with 50 μL ethanol. Animals (3/time point) were assayed at 1.5, 3, 5.5, and 24 hours after administration and the ^14C-radioactivity was measured in the blood, liver, spleen, kidney, lymph nodes and 24 hour feces and urine. […] The uptake is greater with soya oil than vitamin E oil in the blood, liver, and lymph nodes.
BrEA (5 mg in 1.0 mL of a vitamin E and cremophore) supplemented with ^14C-labelled BrEA was administered intragastrically to rats. Solubilization of BrEA in the vitamin E-cremophore mixture was facilitated by the adding 60 μL ethanol. Animals (4/time point) were sacrificed at 2, 3, 5.5, and 24 hours and ^14C-radioactivity was measured in the blood, liver, spleen, kidney, lymph nodes and 24 hour feces and urine. […] Judging from the values in plasma, liver and lymph nodes, it appears that drug uptake is slower compared with soy oil or vitamin E and its presence in the tissues is more persistent.
Rats, in groups of three males, were orally administered 1.0 mL of 0.9% NaCl containing 10 or 32 mg BrEA micronized with a surfactant, Synperonic PE/F 127 (2.5% wt/wt). Rats were examined at 1.5, 5 and 24 hours after administration. Blood, liver, spleen, kidney, lymph nodes, and brain were assayed for ^14C radioactivity. The levels of BrEA in the blood, in comparison to the experiments with BrEA in Vitamin E oil and soya, were higher, 0.3% at 1.5 hours, and increased after 5 hours to 0.8% and 0.9% of the 10 and 32 mg dose, respectively. Additionally, the values in the lymph nodes were similar to those measured at 1.5 hours and the levels were sustained at 5 hours (5.3 and 5.0%) and 24 hours (3.7 and 3.1%) for the 10 and 32 mg dose, respectively (refer to Table 6).
In a repeated dose experiment, rats were intragastrically administered 1.0 mL 0.9% NaCl containing 2 mg BrEA micronized with Synperonic PE/F 127 (2.5% wt/wt) every 6 to 16 hours. Rats (3/time point) were sacrificed at 40, 72, 84, 90 and 96 hours after the first administration. Blood, liver, spleen, kidney and lymph nodes were assayed for ^14C radioactivity.
Rats, in groups of three males, were orally administered 1.0 mL of 0.9% NaCl containing 2, 4 or 10 mg BrEA micronized without a surfactant. Rats were sacrificed at 1.5, 5 and 24 hours after administration and blood, liver, spleen, kidney, lymph nodes and brain were assayed for ^14C radioactivity. The concentration of BrEA micronized without a surfactant in the observed tissues was lower than BrEA plus a surfactant.

[3] = micronized with surfactant, 10 mg dose, 5 hours
[4] = micronized with surfactant, 32 mg dose, 5 hours

C[C@]12CC[C@H](O)C[C@@H]1CC[C@@H]1[C@@H]2CC[C@]2(C)C(=O)[C@H](Br)C[C@@H]12 [BrEA, 16α-bromo-3β-hydroxy-5α-androstane-17-one]
NK cell counts ([1]; day 0): 41 cells/mm^3 | NK cell counts ([1]; day 3): 38 cells/mm^3 | levels of BrEA in the blood ([2]; BrEA micronized with Synperonic PE/F 127, 1.5 hours): 0.3% | levels of BrEA in the blood [2, 3]: 0.8% | values in the lymph nodes [2, 3]: 5.3% | values in the lymph nodes ([2]; micronized with surfactant, 10 mg dose, 24 hours): 3.7% | levels of BrEA in the blood [2, 4]: 0.9% | values in the lymph nodes [2, 4]: 5.0% | values in the lymph nodes ([2]; micronized with surfactant, 32 mg dose, 24 hours): 3.1%
